The target in data set [1] is T1, Potassium voltage-gated channel subfamily A member 5 (Homo sapiens, UniProt P22460). In words: Inhibition of ultra-rapid delayed rectifier current Ikur in human atrial cells at 1uM. Type of data set: functional, cell-based. As to conditions: Cardiac atrium.
The target in data set [2] is T1, Potassium voltage-gated channel subfamily A member 5. Kind of data set: Inhibition of Kv1.5 mediated ultra-rapid delayed rectifier current Ikur in human atrial cells. Type of data set: functional, cell-based, Cardiac atrium.
Data set [3] can be described thus: Percent oxidation in rat S9 microsomal fraction. The class given is ADME. As to conditions: read-out: Oxidation.

Molecules are shown by their SMILES.

As a reminder, the inhibition is how much of the control response was suppressed. Low readings indicate a weak effect, high ones a strong effect. The term IC50 denotes the point on the concentration scale where inhibition reaches its midpoint. Lower therefore signals greater potency in that assay.

T1 sequence (P22460 whole entry): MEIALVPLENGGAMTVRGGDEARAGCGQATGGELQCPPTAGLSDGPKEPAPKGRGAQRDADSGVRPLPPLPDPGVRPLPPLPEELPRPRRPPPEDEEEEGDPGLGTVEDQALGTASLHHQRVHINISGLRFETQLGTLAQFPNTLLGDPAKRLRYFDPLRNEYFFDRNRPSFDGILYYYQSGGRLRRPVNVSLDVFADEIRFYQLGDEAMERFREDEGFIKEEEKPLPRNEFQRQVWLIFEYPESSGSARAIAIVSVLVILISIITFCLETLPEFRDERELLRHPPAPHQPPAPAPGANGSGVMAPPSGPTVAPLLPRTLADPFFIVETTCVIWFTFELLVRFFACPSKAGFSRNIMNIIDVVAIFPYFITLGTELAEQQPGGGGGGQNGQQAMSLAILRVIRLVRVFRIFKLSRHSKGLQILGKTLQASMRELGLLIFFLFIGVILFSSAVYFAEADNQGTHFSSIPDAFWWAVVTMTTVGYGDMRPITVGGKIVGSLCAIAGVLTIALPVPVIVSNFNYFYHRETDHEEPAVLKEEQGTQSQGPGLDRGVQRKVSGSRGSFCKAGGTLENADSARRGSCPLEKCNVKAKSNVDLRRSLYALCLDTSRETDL

For `COc1ccc(C2SCCN2C(=O)COc2ccccc2)cc1` (stereo not drawn), in data set [1], the inhibition was determined as 72%. Same read-out and setting: then `CN(C)c1ccc(C2SCCN2C(=O)COc2ccccc2)cc1` (stereo not drawn), with 55%. In the case of `COc1ccccc1CON1C(=O)CSC1c1ccc(C)c(C)c1` (stereo not drawn), in data set [2], inhibition was half-maximal at 177 nM (IC50). Moreover, the inhibition in data set [1] was found to be 92%. As to `COc1ccc(CCN2C(=O)CSC23CCc2c(C)cccc23)cc1` (stereo not drawn), in data set [2], the IC50 turned out to be 487 nM. Besides, the inhibition in data set [1] was found to be 61%. `COc1ccc(CCN2C(=O)CSC2(C)c2ccc(C)cc2)cc1` (stereo not drawn) came in with an IC50 in data set [2] of 390 nM. Besides, the inhibition in data set [1] stood at 88%. `COc1ccccc1CON1C(=O)CSC1c1ccc(Cl)c(Cl)c1` (stereo not drawn) yielded an IC50 in data set [2] of 204 nM. With `COc1ccc(CC(=O)N2CCSC2c2ccc(C)c(C)c2)cc1` (stereo not drawn), the IC50 in data set [2] is 537 nM. The compound further registered an inhibition in data set [1] of 77%.

In the case of `COc1ccccc1CON1C(=O)CSC1c1ccc(Cl)cc1` (stereo not drawn), the inhibition in data set [1] turned out to be 25%. `COc1cccc(CON2C(=O)CSC2c2ccc(Cl)cc2)c1` (stereo not drawn) gave an IC50 in data set [2] of 380 nM. The compound `Cc1ccc(C2SCCN2C(=O)COc2ccccc2)cc1` (stereo not drawn) showed an inhibition in data set [1] of 80%. The compound `COc1cccc(CON2C(=O)CSC2c2ccc(Cl)c(Cl)c2)c1` (stereo not drawn) returned an IC50 in data set [2] of 179 nM. This lies in the sub-micromolar range. Consider `COc1ccc(CON2C(=O)CSC2c2ccc(Cl)c(Cl)c2)cc1` (stereo not drawn), for which, in data set [2], the IC50 was 113 nM. Moreover, the inhibition in data set [1] is 92%.

For `COc1ccc(CCC(=O)N2CCSC2c2ccc(C)c(C)c2)cc1` (stereo not drawn), it took 150 nM to reach half-maximal inhibition in data set [2] (IC50). Besides, the inhibition in data set [1] came out at 89%.

For the compound `Cc1ccc(C2SCCN2C(=O)CCc2ccccc2)cc1C` (stereo not drawn), the inhibition in data set [1] was found to be 87%. `COc1ccc(CON2C(=O)CSC2c2ccc(Cl)cc2)cc1` (stereo not drawn) showed an IC50 in data set [2] of 187 nM. Compound `COc1cccc(CON2C(=O)CSC2c2ccc(C)c(C)c2)c1` (stereo not drawn) returned an IC50 in data set [2] of 269 nM. In data set [1], this compound showed an inhibition of 75%. Taken in the same sequence, the figures for `COc1ccc(CCN2C(=O)CSC2(C)c2ccc(C)c(C)c2)cc1` (stereo not drawn) were 69 nM and 96%.

Take `Cc1ccc(C2SCC(=O)N2OCc2ccccc2)cc1C` (stereo not drawn): the IC50 in data set [2] was determined as 207 nM. For the same compound, the inhibition in data set [1] came out at 92%.

In the case of `O=C(COc1ccccc1)N1CCSC1c1ccc(Cl)c(Cl)c1` (stereo not drawn), in data set [1], the inhibition worked out at 93%. With `COc1ccc(CON2C(=O)CSC2c2ccccc2)cc1` (stereo not drawn), the IC50 in data set [2] was found to be 924 nM. `Cc1ccc(C2SCCN2C(=O)COc2ccccc2)cc1C` (stereo not drawn) returned an inhibition in data set [1] of 95%. `COc1ccc(CCCC(=O)N2CCSC2c2ccc(C)c(C)c2)cc1` (stereo not drawn) gave an inhibition in data set [1] of 68%. In data set [2], `COc1ccc(CCN2C(=O)CSC23CCc2cc(Cl)ccc23)cc1` (stereo not drawn) returned an IC50 of 812 nM. In addition, the inhibition in data set [1] came to 66%. The compound `O=C1CSC(c2ccc(Cl)c(Cl)c2)N1OCc1ccccc1` (stereo not drawn) displayed an IC50 in data set [2] of 463 nM. Moreover, the inhibition in data set [1] stood at 77%. As for `COc1ccc(CON2C(=O)CSC2c2ccc(C)c(C)c2)cc1` (stereo not drawn), in data set [2], the midpoint of inhibition, the IC50, lay at 95 nM. In the case of `COc1ccc(/C=C/C(=O)N2CCSC2c2ccc(C)c(C)c2)cc1` (stereo not drawn), the inhibition in data set [1] was 92%. For the compound `COc1ccc(CC(=O)N2CCSC2c2ccc(Cl)c(Cl)c2)cc1` (stereo not drawn), the metabolised in data set [3] came to 100%. `O=C(COc1ccccc1)N1CCSC1c1ccc(C2CC2)cc1` (stereo not drawn) registered an inhibition in data set [1] of 64%. `Cc1ccc(C2SCCN2C(=O)OCc2ccccc2)cc1C` (stereo not drawn) registered an inhibition in data set [1] of 18%. For `O=C1CSC(c2ccc(Cl)cc2)N1OCc1ccccc1` (stereo not drawn), the IC50 in data set [2] stood at 997 nM. In data set [1], this compound yielded an inhibition of 35%. On to `COc1ccc(C2SCCN2C(=O)COc2ccccc2)cc1Cl` (stereo not drawn), for which the inhibition in data set [1] stood at 35%.
